Source: patent US20100173281A1, “HCV NS3 protease replicon shuttle vectors” (priority 2009, published 2010)
Read-outs that look alike come from different tables or passages of the source.

Assays:
[1] = system: replicon shuttle vector pSC_1b_NS3/Protease_EcoRV_AsiSI in Lunet Huh7 cells; experiment: Phenotypic replicon assay (transient replicon, firefly luciferase reporter), control shuttle vector; type: cell-based, HCV; conditions: read-out: Mean IC50
Protocol: Phenotypic Replicon Assay
Five micrograms of DNA plasmids were linearized by Sca I restriction enzyme (Roche). After overnight digestion at 37° C., the DNA was purified using Qiagen PCR purification kit. One microgram of linearized DNA was used for the in vitro transcription using T7 RiboMAX Express (Promega) following manufacturer's protocol. After 2 hours of incubation at 37° C., DNase treatment was performed for 30 minutes at 37° C. to remove the DNA template. In vitro transcribed RNA was then purified using RNeasy spin column (Qiagen) following manufacturer's protocol.
The hepatoma Lunet Huh-7 cell line were cultured at 37° C. in a humidified atmosphere with 5% CO2 in Dulbecco's Modified Eagle Medium (DMEM) supplemented with Glutamax™ and […] sodium pyruvate. The medium was further supplemented with 10% (v/v) FBS and 1% (v/v) penicillin/streptomycin. All reagents were from Invitrogen/Gibco.
Four million Lunet Huh7 cells were transfected with 5 μg of in vitro transcribed RNA using electroporation. Cells were then resuspended in 7.2 ml of DMEM containing 5% FBS and plated in 96-well plate at 50000 cells/well (in 90 μl final volume). Inhibitors (when used) were added 24 hours post-transfection in 3 fold dilutions at a final DMSO concentration of 1% and firefly luciferase reporter signal was read 72 hours after addition of inhibitors using the Luciferase Assay system (Promega). The IC50 values were assessed as the inhibitor concentration at which a 50% reduction in the level of firefly luciferase reporter was observed as compared to the level of firefly luciferase signal without the addition of compounds.
The replication capacity of the replicon shuttle vector, pSC—1b_NS3/Protease_EcoRV_AsiSI, as well as those of replicons that contain HCV genotype-1a and genotype-1b patient-derived NS3 protease domains were tested with the luciferase signal as the readout and the results are shown on FIG. 3. The inhibitory effects of the HCV protease inhibitors, BILN2061, VX-950 and NM107 were also tested on these replicons and the results are shown on Table 1.

[2] = system: replicons that contain HCV genotype-1b patient-derived NS3 protease domains in Lunet Huh7 cells; experiment: Phenotypic replicon assay (transient replicon, firefly luciferase reporter), genotype-1b patient-derived NS3 protease; type: cell-based
[3] = system: replicons that contain HCV genotype-1a patient-derived NS3 protease domains in Lunet Huh7 cells; experiment: Phenotypic replicon assay (transient replicon, firefly luciferase reporter), genotype-1a patient-derived NS3 protease; type: cell-based
[4] = Hepatitis C virus, Huh-7, read-out: Mean IC50, GT-1b patient sample 206
[5] = Hepatitis C virus, Huh-7, read-out: Mean IC50, GT-1b patient sample 301
[6] = Hepatitis C virus, Huh-7, read-out: Mean IC50, GT-1b patient sample PC232
[7] = Hepatitis C virus, Huh-7, read-out: Mean IC50, GT-1a patient sample RO-191
[8] = Hepatitis C virus, Huh-7, read-out: Mean IC50, GT-1a patient sample RO-192
[9] = Hepatitis C virus, Huh-7, read-out: Mean IC50, GT-1a patient sample RO-193
[10] = Hepatitis C virus, Huh-7, read-out: Mean IC50, GT-1a patient sample RO-194
[11] = Hepatitis C virus, Huh-7, read-out: Mean IC50, GT-1a patient sample RO-195
[12] = Hepatitis C virus, Huh-7, read-out: Mean IC50, GT-1a patient sample RO-207

## COc1ccc2c(O[C@@H]3C[C@H]4C(=O)N[C@]5(C(=O)O)C[C@H]5/C=C\CCCCC[C@H](NC(=O)OC5CCCC5)C(=O)N4C3)cc(-c3csc(NC(C)C)n3)nc2c1 [BILN2061]
[1]; Hepatitis C virus, Huh-7, 72 h
  IC50: 0.489 nM
[2]; [4]
  IC50: 0.643 nM
[2]; [5]
  IC50: 0.378 nM
[2]; [6]
  IC50: 0.468 nM
[3]; [7]
  IC50: 0.798 nM
[3]; [8]
  IC50: 0.34 nM
[3]; [9]
  IC50: 0.298 nM
[3]; [10]
  IC50: 0.665 nM
[3]; [11]
  IC50: 0.629 nM
[3]; [12]
  IC50: 0.386 nM

## C[C@@]1(O)[C@H](O)[C@@H](CO)O[C@H]1n1ccc(N)nc1=O [NM107]
[1]; replicon control pSC_1b_NS3/Protease_EcoRV_AsiSI, luciferase read 72 hours after addition of inhibitors
  IC50: 283 nM
[2]; GT-1b patient sample 206, read-out: Mean IC50
  IC50: 279 nM
[2]; GT-1b patient sample 301, read-out: Mean IC50
  IC50: 279 nM
[2]; GT-1b patient sample PC232, read-out: Mean IC50
  IC50: 449 nM
[3]; GT-1a patient sample RO-191, read-out: Mean IC50
  IC50: 539 nM
[3]; GT-1a patient sample RO-192, read-out: Mean IC50
  IC50: 554 nM
[3]; GT-1a patient sample RO-193, read-out: Mean IC50
  IC50: 640 nM
[3]; GT-1a patient sample RO-194, read-out: Mean IC50
  IC50: 509 nM
[3]; GT-1a patient sample RO-195, read-out: Mean IC50
  IC50: 312 nM
[3]; GT-1a patient sample RO-207, read-out: Mean IC50
  IC50: 1160 nM

## CCC[C@H](NC(=O)[C@@H]1[C@H]2CCC[C@H]2CN1C(=O)[C@@H](NC(=O)[C@@H](NC(=O)c1cnccn1)C1CCCCC1)C(C)(C)C)C(=O)C(=O)NC1CC1 [VX-950]
[1]; Hepatitis C virus, Huh-7, 72 h
  IC50: 0.16 nM
[2]; [4]
  IC50: 0.175 nM
[2]; [5]
  IC50: 0.162 nM
[2]; [6]
  IC50: 0.166 nM
[3]; [7]
  IC50: 0.057 nM
[3]; [8]
  IC50: 0.068 nM
[3]; [9]
  IC50: 0.132 nM
[3]; [10]
  IC50: 0.052 nM
[3]; [11]
  IC50: 0.028 nM
[3]; [12]
  IC50: 0.083 nM
